How the values were obtained:
Assay in all cases: viability relative to DMSO control (fraction); higher = less drug effect (more viable cells)
Conditions in all cases: 48 h
[1] = test system: primary AML patient cells (S089)
Summary of the method: (§1)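 In 384-well plates with compounds pre-plated at five concentrations (one well per concentration), primary mononuclear tumour cells were plated at 4 × 10^4 cells per well. The cells came from blood or bone marrow by Ficoll isolation or from processed lymph node, and were used fresh or cryopreserved. Culture ran for 48 h at 37 °C and 5% CO2 in RPMI-1640 containing penicillin/streptomycin, L-glutamine and human serum. Viability was read as CellTiter-Glo luminescence, normalised to the median of 16 inner DMSO wells.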

[2] = test system: primary AML patient cells (S085)
Summary of the method: as §1

[3] = test system: primary AML patient cells (S037)
Summary of the method: as §1

[4] = test system: primary DLBCL patient cells (S076)
Summary of the method: as §1

[5] = test system: primary AML patient cells (S025)
Summary of the method: as §1

[6] = test system: primary T-NHL patient cells (S058)
Summary of the method: as §1

[7] = test system: primary AML patient cells (S002)
Summary of the method: as §1

[8] = test system: primary AML patient cells (S011)
Summary of the method: as §1

[9] = test system: primary AML patient cells (S091)
Summary of the method: as §1

[10] = test system: primary AML patient cells (S081)
Summary of the method: as §1

[11] = test system: primary AML patient cells (S006)
Summary of the method: as §1

[12] = test system: primary AML patient cells (S021)
Summary of the method: as §1

[13] = test system: primary AML patient cells (S017)
Summary of the method: as §1

[14] = test system: primary DLBCL patient cells (S049)
Summary of the method: as §1

[15] = test system: primary CLL patient cells (S043)
Summary of the method: as §1

[16] = test system: primary AML patient cells (S012)
Summary of the method: as §1

[17] = test system: primary AML patient cells (S019)
Summary of the method: as §1

## COc1cccc2c1C(=O)c1c(O)c3c(c(O)c1C2=O)C[C@@](O)(C(=O)CO)C[C@@H]3O[C@H]1C[C@H](N)[C@H](O)[C@H](C)O1 [Doxorubicin]
[1]; 0.0016 µM
  viability: 1.01
[1]; 0.008 µM
  viability: 1
[1]; 0.04 µM
  viability: 1.01
[1]; 0.2 µM
  viability: 0.665
[1]; 1 µM
  viability: 0.187
[2]; 0.0016 µM
  viability: 0.94
[2]; 0.008 µM
  viability: 1.09
[2]; 0.04 µM
  viability: 0.834
[2]; 0.2 µM
  viability: 0.278
[2]; 1 µM
  viability: 0.0284
[3]; 0.0016 µM
  viability: 1.06
[3]; 0.008 µM
  viability: 1.05
[3]; 0.04 µM
  viability: 0.979
[3]; 0.2 µM
  viability: 0.737
[3]; 1 µM
  viability: 0.447
[4]; 0.0016 µM
  viability: 1.05
[4]; 0.008 µM
  viability: 1.1
[4]; 0.04 µM
  viability: 0.822
[4]; 0.2 µM
  viability: 0.453
[4]; 1 µM
  viability: 0.034
[5]; 0.0016 µM
  viability: 0.99
[5]; 0.008 µM
  viability: 1.01
[5]; 0.04 µM
  viability: 0.848
[5]; 0.2 µM
  viability: 0.501
[5]; 1 µM
  viability: 0.119
[6]; 0.0016 µM
  viability: 1.03
[6]; 0.008 µM
  viability: 0.96
[6]; 0.04 µM
  viability: 0.823
[6]; 0.2 µM
  viability: 0.525
[6]; 1 µM
  viability: 0.145
[7]; 0.0016 µM
  viability: 1.06
[7]; 0.008 µM
  viability: 1.08
[7]; 0.04 µM
  viability: 0.695
[7]; 0.2 µM
  viability: 0.401
[7]; 1 µM
  viability: 0.33
[8]; 0.0016 µM
  viability: 1.05
[8]; 0.008 µM
  viability: 1.04
[8]; 0.04 µM
  viability: 0.973
[8]; 0.2 µM
  viability: 0.507
[8]; 1 µM
  viability: 0.0215
[9]; 0.0016 µM
  viability: 0.983
[9]; 0.008 µM
  viability: 0.905
[9]; 0.04 µM
  viability: 0.737
[9]; 0.2 µM
  viability: 0.637
[9]; 1 µM
  viability: 0.499
[10]; 0.0016 µM
  viability: 1.05
[10]; 0.008 µM
  viability: 1.09
[10]; 0.04 µM
  viability: 1.12
[10]; 0.2 µM
  viability: 1.18
[10]; 1 µM
  viability: 0.0358
[11]; 0.0016 µM
  viability: 1.02
[11]; 0.008 µM
  viability: 1.05
[11]; 0.04 µM
  viability: 0.788
[11]; 0.2 µM
  viability: 0.32
[11]; 1 µM
  viability: 0.0625
[12]; 0.0016 µM
  viability: 0.994
[12]; 0.008 µM
  viability: 1.01
[12]; 0.04 µM
  viability: 0.929
[12]; 0.2 µM
  viability: 0.438
[12]; 1 µM
  viability: 0.182
[13]; 0.0016 µM
  viability: 1.2
[13]; 0.008 µM
  viability: 1.1
[13]; 0.04 µM
  viability: 1.07
[13]; 0.2 µM
  viability: 0.96
[13]; 1 µM
  viability: 0.146
[14]; 0.0016 µM
  viability: 1.14
[14]; 0.008 µM
  viability: 1
[14]; 0.04 µM
  viability: 0.827
[14]; 0.2 µM
  viability: 0.3
[14]; 1 µM
  viability: 0.0345
[15]; 0.0016 µM
  viability: 1.03
[15]; 0.008 µM
  viability: 0.956
[15]; 0.04 µM
  viability: 0.97
[15]; 0.2 µM
  viability: 0.615
[15]; 1 µM
  viability: 0.0447
[16]; 0.0016 µM
  viability: 1.04
[16]; 0.008 µM
  viability: 1.04
[16]; 0.04 µM
  viability: 0.88
[16]; 0.2 µM
  viability: 0.896
[16]; 1 µM
  viability: 0.0673
[17]; 0.0016 µM
  viability: 1.02
[17]; 0.008 µM
  viability: 1.06
[17]; 0.04 µM
  viability: 0.828
[17]; 0.2 µM
  viability: 0.481
[17]; 1 µM
  viability: 0.219

Source: the supplement of paper PMC10733146
